For one compound, IC50 results are on record in patent US10479788B2, “Compounds that inhibit MPS1 kinase” (Cancer Research Technology Limited, priority 2012, dated 2019).

Molecules are shown by their SMILES.

What is called IC50 is the concentration at which inhibition is half-maximal. The low end stands for higher potency, the high end for lower potency.

This assay deals with full length MPS1 (Homo sapiens (Human), UniProt P33981). The assay can be described thus: Measurement of Inhibition of MPS1 Kinase. The assay is classed as biochemical. The following applies: full length MPS1 12.5 nM or 3 nM, H236 peptide 5 μM, ATP 10 μM, 60 min at room temperature, Caliper EZ reader II. On the procedure:
The reaction was carried out for 60 min at room temperature and stopped by the addition of buffer (10 μl) containing 20 mM EDTA, 0.05% (v/v) Brij-35, in 0.1M HEPES-buffered saline (Free acid, Sigma, UK). The plate was read on a Caliper EZ reader II (Caliper Life Sciences).
The % inhibition of the compounds is calculated relative to the means of selected control wells. […] The % inhibitions at each concentration are then fitted to a 4 parameter logistic fit: y=(a+((b−a)/(1+((c/x^d)))) where a=asym min, b=asym max, c=IC50 and d=hill coefficient

full length MPS1, sequence (P33981 whole entry): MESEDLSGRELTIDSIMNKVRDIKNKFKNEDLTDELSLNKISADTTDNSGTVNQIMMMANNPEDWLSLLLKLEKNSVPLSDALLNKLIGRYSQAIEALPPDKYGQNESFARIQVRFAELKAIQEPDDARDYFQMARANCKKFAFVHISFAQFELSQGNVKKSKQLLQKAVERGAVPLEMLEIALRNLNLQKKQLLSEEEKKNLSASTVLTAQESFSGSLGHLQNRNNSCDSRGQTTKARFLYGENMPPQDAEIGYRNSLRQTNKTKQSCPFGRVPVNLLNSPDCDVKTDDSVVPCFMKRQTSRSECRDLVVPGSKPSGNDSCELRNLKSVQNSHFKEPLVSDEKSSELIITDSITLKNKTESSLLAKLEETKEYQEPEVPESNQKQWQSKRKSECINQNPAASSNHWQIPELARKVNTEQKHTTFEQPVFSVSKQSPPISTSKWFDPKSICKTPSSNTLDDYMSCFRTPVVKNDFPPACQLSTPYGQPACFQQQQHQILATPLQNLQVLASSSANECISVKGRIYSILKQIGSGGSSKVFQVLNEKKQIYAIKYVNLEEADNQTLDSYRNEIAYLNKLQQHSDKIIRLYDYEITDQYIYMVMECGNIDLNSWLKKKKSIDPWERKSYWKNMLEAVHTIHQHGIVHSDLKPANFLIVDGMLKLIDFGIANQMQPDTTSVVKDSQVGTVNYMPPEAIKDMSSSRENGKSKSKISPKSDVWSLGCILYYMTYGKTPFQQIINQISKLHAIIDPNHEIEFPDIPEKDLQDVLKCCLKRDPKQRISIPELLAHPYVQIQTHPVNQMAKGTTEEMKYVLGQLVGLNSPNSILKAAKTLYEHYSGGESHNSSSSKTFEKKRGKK

In the case of `COc1cc(-c2cnn(C)c2)ccc1Nc1ncc2ccnc(N3CCCC3C)c2n1` (stereo not shown) [Example 64], the IC50 amounted to 6 nM.
